From patent publication US20040018606A1, “Control of protein systemic delivery by hypoxia using a tet-HIF1-alpha chimeric transactivator” (priority 2002, published 2004)

test system: tetO-CMV promoter; assay: Luciferase activity in electroporated HeLa-16 cells treated with desferrioxamine, cobaltous chloride or 2-2′-dipyridyl; assay type: cell-based; conditions: HeLa-16 cells electroporated with pTHV, 24 hours
Description: HeLa cells were maintained in Dulbecco Modified Medium with Glutamax (Gibco) supplemented with 10% fetal calf serum. For transfection, 5×10e6 HeLa cells were electroporated with a Gene Pulser (Biorad) at 200 V, 960 microfarads in the presence of 25 μg of each plasmid, NaCl 3M in 50 microliters. For control experiments a Bluescript pBSK+ was electroporated instead of the plasmid of interest. Each suspension of cells was then split in aliquots and incubated either in medium alone or in medium supplemented with doxycycline (1 μg/ml), cobaltous chloride (100 μM), desferrioxamine (Def) (130 μM), 2-2′-dipyridyl (DP) (100 μM) or the MG132 proteasome inhibiteur (2.5 μM). For hypoxic conditions cells were placed at 37° C. in a closed chamber with 1% oxygen, 5% CO2 and 94% N2 (Air Liquide).
Electroporated cells were trypsinized and the pellet was lysed in 200 μl LB buffer (Tris Phosphate pH 7.8 25 mM, MgCl2 8 mM, dithiothreitol 1 mM, Triton×100 1%, glycerol 15%). The lysat was then centrifugated at 4° C., the supernatant was collected and luciferase activity was measured using a luminometer (Lumat LB 9501, Berthold). Results were expressed as relative luciferase activity per mg of cell lysates protein. Protein concentration determination was performed with the BCA Protein Assay Kit (Pierce).
The reporter plasmid encoded for a luciferase gene inserted downstream of a minimal CMV promoter that contains seven binding sites for the E.Coli tetracycline repressor (tetO-CMV)(20). HeLa cells were stably transfected with this vector and one clone named HeLa-16 was used in all transient transfection assays.
HeLa-16 cells were electroporated with each pTHV or pTV. After electroporation cells were split into aliquots, and exposed in parallel to 21% O2, 1% O2, 2,2′-dipyridyl (DP), desferrioxamine (Def), cobaltous chloride (Co) or MG132. Luciferase activities were measured 24 hours later and normalised as RLU (relative light unit) per mg of proteins.

Row | Compound | effectiveness of the chemical in inducing transactivation by pTHV
1 | c1ccc(-c2ccccn2)nc1 [DP, 2-2′-dipyridyl] | most effective
2 | CC(=O)N(O)CCCCCNC(=O)CCC(=O)N(O)CCCCCNC(=O)CCC(=O)N(O)CCCCCN [desferrioxamine] | lower than with DP
3 | [Cl-].[Cl-].[Co+2] [cobalt, cobaltous chloride] | lower than with DP
